# Results reported in US7504362B2, “Pesticidal compositions” (Merial Limited, priority 2002, dated 2009).
# Test system: Ctenocephalides felis, Diabrotica undecimpunctata, Nephotettix cincticeps or Rhipicephalus sanguineus
# Assay: Pooled statement: active in one or more of the above tests (Methods A to E)
# Assay type: in vivo
# Conditions: active = reaching the threshold of Method A, B, C, D or E; test not given per compound
# Protocol: The following representative test procedures, using compounds of the invention, were conducted to determine the parasiticidal and pesticidal activity of compounds of the invention.
# A test container was filled with 10 adults of Ctenocephalides felis. A glass cylinder was closed on one end with parafilm and placed on top of the test container. The test compound solution was then pipetted into bovine blood and added to the glass cylinder. The treated Ctenocephalides felis were held in this artificial dog test (blood 37° C., 40-60% relative humidity; Ctenocephalides felis 20-22° C., 40-60% relative humidity) and assessment performed at 24 and 48 hours after application. Active compounds gave at least 90% control of Ctenocephalides felis at a test concentration of 5 ppm or less.
# Two days before application, seeds of maize were soaked in water under warm conditions to elicit fast germination. One day before application, eggs of Diabrotica undecimpunctata were transferred to one half of a Japanese filter paper placed in a plastic petri dish. Afterwards, a sprouted maize seed was placed on a moistened pad beside the filter paper. Three drops of 200 microliters of test compound solution were carefully pipetted onto the egg. The remainder of the solution was placed on the maize and then the Petri dish was closed. The treated eggs in the Petri dishes were held in a climate chamber for 6 days. The compound efficacy (percentage of dead eggs and/or larvae in comparison to untreated control) was assessed 6 days after application using a binocular microscope.
# Active compounds gave at least 90% control of Diabrotica undecimpunctata at a test concentration of 10 ppm.
# The leaves of 12 rice plants having a stem length of 8 cm were dipped for 5 seconds into an aqueous solution of the formulated test compound. After the solution had run off, the rice plants treated in this manner were placed in a Petri dish and populated with about 20 larvae (L3 stage) of Nephotettix cincticeps. The Petri dish was closed and then stored in a climate chamber (16 hours of light/day, 25° C., 40-60% relative humidity). After 6 days storage, the percentage mortality of leafhopper larvae was determined.
# Active compounds gave at least 98% mortality of Nephotettix cinciceps larvae at a test concentration of 100 ppm.
# Solutions of the test compounds were dropped onto filter paper, dried and the filter paper placed into test tubes and infested with 10 adults of Ctenocephalides felis. The treated Ctenocephalides felis were held in a climate chamber (26° C., 80% RH) and the percentage efficacy assessed 24 hours and 48 hours after application in comparison with the untreated control.
# Active compounds gave at least 70% contact control of Ctenocephalides felis at a test concentration of 1000 ppm.
# Solutions of the test compounds were dropped onto filter paper, dried and the filter paper placed into test tubes and infested with 20-30 larvae (L1) of Rhipicephalus sanguineus and the tubes closed with a clip. The treated Rhipicephalus sanguineus were held in a climate chamber (25° C., 90% RH) and the percentage efficacy assessed 24 hours after application in comparison with the untreated control. Active compounds gave at least 70% contact control of Rhipicephalus sanguineus at a test concentration of 100 ppm.
structure (smiles),measurement,value
CN(c1c([S+]([O-])C(F)(F)F)c(C#N)nn1-c1c(Cl)cc(C(F)(F)F)cc1Cl)S(=O)(=O)c1ccc(C(F)(F)F)cc1 (stereo not shown) [Compound 5-61],active in one or more of the above tests,active
